For orientation: pKa means the pH at which an ionisable group is half protonated. A low value points to a stronger acid or weaker base. Turning to `CCC[NH2+]CCN`, the pKa (basic group) was found to be 7.54.
The compound `Cc1cc(C#N)cc(C)[n+]1O` gave a pKa (acidic group) of -0.61.
Consider `OCc1cccnc1`, for which the pKa (basic group) amounted to 5.
On the same count and under the same terms, with `O=[N+]([O-])c1ccc(/C=C/c2nnnn2-c2ccc([N+](=O)[O-])cc2)cc1` the figure was -3.15; with `Cc1cccc(N)c1-c1c(C)cccc1[NH3+]`, 2.1; with `C[Si](C)(C)OC1CN(Cc2ccc(F)cc2)C1`, 7.91.
Consider `CC[C@]1(O)C[C@@H](C)N[C@@H]2CCCC[C@H]21`, for which the pKa (basic group) turned out to be 10.3.
For the setting “acidic group”, `Cc1nc(N)cc(O)[nH+]1` had a pKa of 1.7.
`[O-][n+]1ccc2ccccc2c1` showed a pKa (basic group) of 1.01.
The same measure, in the same setting: with `Cc1cc(-c2cc(C)n(C)n2)nn1C` the figure was 2.22.
Regarding `CCc1ccc([C@@H]2CCC[NH+]2C)cn1`, for the setting “basic group”, the pKa stood at 3.69.
The same measure, in the same setting: next, `c1ccc2cc3ncccc3cc2c1`: 4.92.
Same read-out and setting: next, `Cc1cc(N)ccc1-c1ccc([NH3+])cc1C`: 3.7.
Under “basic group”, `c1ccc(C2=NCCN2)nc1` gave a pKa of 8.98.
Where the note is “basic group”, `O=C([O-])CN=C1CCCC1` had a pKa of 8.72.
As to `CC(C)C[C@H]([NH3+])C(=O)N[C@@H](Cc1c[nH]c[nH+]1)C(=O)O`, the pKa (acidic group) amounted to 2.76.
Consider `N#CC(c1ccccc1)c1ccc([N+](=O)[O-])cc1` (stereo not drawn), for which the pKa (acidic group) was 10.9.
`CCCC1CCCN1C` (stereo not drawn) came in with a pKa (basic group) of 9.78.
In turn, `N=C(c1ccccc1)c1cccc(O)c1` showed a pKa (basic group) of 6.92.
In the case of `NCc1ccc(S(N)(=O)=O)cc1`, the pKa is, setting by setting: (acidic group) 10.2; (basic group) 8.35.
On to `NCc1ccc(C(=O)[O-])cc1`, for which, where the note is “basic group”, the pKa is 9.64.
On the same count and under the same terms, next, `NC/C=C/C(=O)[O-]`: 9.46.
`C1CCC2(CC1)N1CCCN12` (stereo not drawn) yielded a pKa (basic group) of 5.19.
Compound `CC1=C(CC(C)[NH2+]CC(O)c2ccc(N)cc2)CCC1(C)C` (stereo not drawn) came in with a pKa (basic group) of 3.69.
`CCN(CC)Cc1cccc(C)c1O` yielded a pKa (basic group) of 8.19.
The same measure, in the same setting: with `Nc1ccccc1Cl` the figure was 2.64.
For the compound `COc1c(C)cccc1C(=O)O`, where the note is “acidic group”, the pKa was found to be 3.84.
Consider `CC(C)Nc1ccccc1`, for which the pKa (basic group) amounted to 5.67.
Consider `O=C(O)C[C@]1(O)C[C@@H]2CC[C@H]1C2`, for which the pKa (acidic group) turned out to be 4.46.
Turning to `[NH3+]c1ccc(-c2nc3ccccc3s2)cc1`, under “basic group”, the pKa turned out to be 0.1.
As for `CCCCCCCCCC[NH2+]CCC(=O)O`, the pKa (acidic group) amounted to 3.57.
Compound `CC(=O)C1(c2cccc(O)c2)CCN(C)CC1` displayed a pKa (basic group) of 8.61.
Consider `Nc1nc[nH+]c2c1ncn2CCOCP(=O)(O)O`, for which the pKa reads like this: (acidic group) 1.22; (basic group) -0.35.
`[NH3+][C@@H](Cn1cccn1)C(=O)O` had a pKa (acidic group) of 2.2.
`O=[N+]([O-])c1cc(-c2ccccc2)nnc1NCC[NH+]1CCOCC1`: the pKa (basic group) worked out at 0.2.
With `O=C(O)c1csc(Br)c1`, the pKa (acidic group) is 3.7.
`CCCCCCCCCCNc1ccccc1` displayed a pKa (basic group) of 4.56.
Consider `NCC[S-]`, for which, for the setting “basic group”, the pKa turned out to be 10.7.
Take `CC[NH2+]CCN`: the pKa (basic group) was 7.52.
On to `O=C(O)c1cccc2ccc(O)cc12`, for which the pKa (acidic group) came to 3.69.
Under “acidic group”, `CC(C)(C(N)=O)S(=O)(=O)NC(N)=O` came in with a pKa of 5.15.
The compound `NCCC[n+]1ccc2c([N+](=O)[O-])cccc2c1` showed a pKa (basic group) of 8.48.
For the compound `NC(Cc1c[nH]c(=S)[nH]1)C(=O)[O-]` (stereo not drawn), the pKa was found to be 11.4 (acidic group) and 8.47 (basic group).
On to `CC[NH+](CC)CCN=C(c1ccccc1C)c1ccccc1C`, for which the pKa (basic group) amounted to 2.8.
`Nc1cc2c(cc1Br)CCCC2`: the pKa (basic group) worked out at 3.05.
Consider `N#C/C(=C(\[O-])O)c1ccccc1`, for which the pKa (acidic group) stood at 8.7.
`CN1C(=O)NCc2[nH]cnc21`: the pKa (acidic group) was found to be 11.1.
`Nc1ccc2nnc3ccccc3c2c1`: the pKa (basic group) came to 6.68.
Regarding `Cc1cc(Br)cc(C)c1N(C)C`, the pKa (basic group) was found to be 4.36.
Compound `Cc1ccc(C)c(C(=O)O)c1` came in with a pKa (acidic group) of 3.97.
Consider `C[NH+](C)Cc1cccc(NC(=O)/C=N/O)c1`, for which the pKa (acidic group) is 8.28.
Compound `CC(C)CNCC(=O)[O-]` had a pKa (basic group) of 10.1.
Take `C/C(N)=N/O`: under “basic group”, the pKa was determined as 5.9.
In turn, `CC(C)CN(CC(C)C)C(=S)S` came in with a pKa (acidic group) of 3.4.
Regarding `COc1ccnc2ccccc12`, the pKa (basic group) came to 6.45.
As to `On1nnc2ccc(Cl)cc21`, the pKa (acidic group) turned out to be 4.15.
Under “acidic group”, `CC[NH+](C)CCCNC(=O)/C=N/O` returned a pKa of 8.72.
Consider `NC(=O)Cc1ccccn1`, for which the pKa (basic group) was found to be 4.34.
`C1CN2C(=N1)N1CCN=C1N1CCN=C21`: the pKa (basic group) is 5.8.
Same read-out and setting: next, `CCCCC/C(N)=N/N(C)C`: 10.4.
For the setting “basic group”, `NCCNCCO` registered a pKa of 9.67.
Turning to `N#Cc1cccc(O)c1`, the pKa (acidic group) was 8.63.
For the compound `C[N+](C)(C)Cc1ccccc1O`, the pKa (acidic group) was found to be 8.71.
In the case of `Sc1cccc[nH+]1`, the pKa (acidic group) is -1.22.
Take `NC(c1ncc[nH]1)c1ncc[nH]1`: the pKa (basic group) turned out to be 6.49.
For `COc1ccc(N)cc1`, the pKa (basic group) is 5.35.
Compound `NC(=O)C1CCCCN1` (stereo not drawn) had a pKa (acidic group) of 8.9.
`CC(C)CN[N+](=O)[O-]`: the pKa (acidic group) was 6.38.
For `C(=C\C[NH+]1CCCCC1)/CN1CCCCC1`, the pKa (basic group) came to 7.9.
`Cc1nccc2c1[nH]c1ccccc12`: the pKa by setting is: (acidic group) 14.5; (basic group) 6.55.
`O=[N+]([O-])c1cc(CN2CCOCC2)c([O-])c2ccccc12` gave a pKa (basic group) of 7.98.
Turning to `O=C(O)CCCc1cccs1`, the pKa (acidic group) was 4.54.
For the compound `Cc1cccc(C)c1/C(=N/CCCN(C)C)c1ccccc1`, the pKa (basic group) came out at 8.7.
Under “acidic group”, `Cc1cc(C)c(C(C)C)cc1O` yielded a pKa of 10.8.
Consider `COc1cc(S(C)=O)ccc1-c1nc2nnccc2[nH]1` (stereo not drawn), for which the pKa by setting is: (acidic group) 8.71; (basic group) 3.63.
`N/C(CC[NH2+]c1ccccc1)=N\O` had a pKa (basic group) of 2.45.
`Nc1c([N+](=O)[O-])ccc2ccccc12` came in with a pKa (basic group) of -1.6.
Where the note is “basic group”, `CNNC1CC[NH+](C(C)C)CC1` returned a pKa of 6.2.
`NCCCCCC[NH3+]` registered a pKa (basic group) of 10.2.
`CC[C@@H](C(=O)O)[C@@]1(O)C[C@H]2CC[C@@H]1C2`: the pKa (acidic group) amounted to 4.26.
Regarding `COc1ccccc1C(=N)c1ccccc1`, the pKa (basic group) worked out at 7.29.
`CCCCCCCCCCN(CC(C)O)CC(C)O` (stereo not drawn) yielded a pKa (basic group) of 7.6.
`C[C@@H]1[NH2+][C@H](CCCCCCCC(=O)O)CC[C@@H]1O`: where the note is “acidic group”, the pKa amounted to 4.6.
Compound `Oc1onc(-c2ccccc2)c1Br` had a pKa (acidic group) of 2.3.
Consider `O=C(O)CSC(c1ccccc1)(c1ccccc1)c1ccccc1`, for which, for the setting “acidic group”, the pKa is 4.32.
Regarding `CCSC(=O)c1ccc(OC)cc1`, where the note is “basic group”, the pKa is -3.77.
In turn, `CC(C)c1ccc(C(=O)O)cc1` had a pKa (acidic group) of 4.31.
Take `CC1CCN(C)C(C)(C)C1` (stereo not drawn): the pKa (basic group) came to 10.2.
`O=C(O)[C@@H]1O[C@H](Oc2cccc3ccc[nH+]c23)[C@@H](O)[C@H](O)[C@H]1O`: where the note is “acidic group”, the pKa was found to be 3.01.
For the compound `Cc1nnc(N)nc1C`, the pKa (basic group) was 3.71.
Same read-out and setting: next, `CN(CCC[NH3+])CCC[NH3+]`: 6.45.
The compound `CC1(C)CC(=O)C=C(N2CCCC2)C1` gave a pKa (basic group) of 3.15.
Consider `CNc1cc[n+](O)cc1`, for which, where the note is “acidic group”, the pKa amounted to 3.85.
Compound `Nc1nnnn1-c1cccc(Cl)c1` showed a pKa (basic group) of 0.7.
The compound `NC12CCC(C1)C2` yielded a pKa (basic group) of 9.3.
`Cc1cc(C)c2c(O)c(CC(=O)O)oc2c1`: the pKa (acidic group) is 4.75.
In turn, `OC(O)c1ccncc1` registered a pKa (acidic group) of 12.2.
For the compound `Cc1ccc(C(=O)O)c(O)c1`, the pKa (acidic group) was 3.11.
The same measure, in the same setting: with `O=[N+]([O-])c1ccc(C(=S)Nc2ccccc2)cc1` the figure was 9.81.
On to `COc1ccc(-c2cn3cccnc3n2)c(OC)c1`, for which the pKa (basic group) amounted to 4.34.
The compound `Cc1cccc(CCCCCCCC(=O)[O-])n1` came in with a pKa (basic group) of 7.
Take `N#Cc1ccc2c(c1)CCN2`: under “basic group”, the pKa turned out to be 2.8.
Still for that read-out and setting: next, `N#CCN1CCOCC1`: 2; `Nc1ccc(C(=O)c2ccc([NH3+])cc2)cc1`: 1.37.
In the case of `CN(C)C[C@@H]1[C@@H](N)[C@]2(C)CC[C@@H]1C2(C)C`, the pKa (basic group) came out at 9.45.
`CC(C)(/C=C/C(=O)[O-])c1ccccc1O` showed a pKa (acidic group) of 10.7.
In turn, `CCc1ccc(OC)c(C(=O)NC[C@H]2CCCN2CC)c1[O-]` gave a pKa (basic group) of 9.54.
Compound `CC(O)CN(CC(C)O)C(C)C` (stereo not drawn) displayed a pKa (basic group) of 9.33.
On to `Cc1c(C)c2c(c(C)c1OP(=O)([O-])O)CCC(C)(CCC[C@@H](C)CCC[C@@H](C)CCCC(C)C)O2` (stereo partly drawn), for which the pKa (acidic group) is 9.44.
`C#CC(C)Nc1ccccc1` (stereo not drawn): the pKa (basic group) worked out at 3.25.
As to `COc1ccccc1C(=O)N[C@@H]1C[C@H]2CC[C@@H](C1)N2Cc1ccccc1`, where the note is “basic group”, the pKa is 8.88.
`O=C(O)c1ccc(Br)c([N+](=O)[O-])c1` showed a pKa (acidic group) of 3.24.
In the case of `CCOC(=O)N1CCN(C)CC1`, the pKa (basic group) amounted to 7.31.
Consider `C=Cc1ccccn1`, for which, for the setting “basic group”, the pKa is 4.92.
For the compound `[O-]c1ccccc1C1=NCCN1`, the pKa (basic group) came out at 12.6.
`C=CCCC(=O)O` yielded a pKa (acidic group) of 4.68.
Consider `CNCC(O)CO` (stereo not drawn), for which the pKa (basic group) was determined as 9.55.
Under “basic group”, `[O-]c1cccnn1` registered a pKa of 10.5.
As for `CC(C)CS(=O)O`, the pKa (acidic group) is 2.75.
Compound `Nc1ccc2c(c1)CCCC2` displayed a pKa (basic group) of 5.2.
Same read-out and setting: next, `O=C(NCCCN1CCOCC1)c1ccc(Cl)cc1`: 6.81; `CCC(C)NC(C)CC` (stereo not drawn): 10.9.
As to `Cc1nc2nc([O-])[nH]c(=O)c2[nH]1`, the pKa (acidic group) is 9.7.
Same read-out and setting: next, `O=Cc1ccc(O)cc1`: 7.53.
The compound `C[C@@H]1CCC[C@H](C)N1` showed a pKa (basic group) of 11.
`CCc1ccccn1` yielded a pKa (basic group) of 5.98.
Compound `O=C(O)C#CC[NH+]1CCOCC1` gave a pKa (acidic group) of 1.79.
The compound `COc1ccc(C(O)c2ccccc2)cc1` (stereo not drawn) yielded a pKa (basic group) of -8.
Under “acidic group”, `[NH3+]C(Cc1ccccc1)C(=O)O` (stereo not drawn) returned a pKa of 2.3.
Still for that read-out and setting: next, `SCC[NH2+]Cc1ccccc1`: 7.86; `CCOC(=O)C(Cc1cccc(C)c1)C(C)=O` (stereo not drawn): 11.9.
In the case of `CN(C)Cc1cc(C(C)(C)C)ccc1O`, the pKa runs as follows: (acidic group) 11.5; (basic group) 8.55.
Take `NCCCCCc1cccnc1`: the pKa (basic group) amounted to 10.3.
`O=S(Cc1ccccc1)c1ncc[nH]1` (stereo not drawn) returned a pKa (acidic group) of 9.8.
The compound `Nc1cn[nH]c1` had a pKa (basic group) of 5.57.
Still for that read-out and setting: with `N/C(CCNc1ccccc1)=N\O` the figure was 5.35.
The same measure, in the same setting: with `CC1(C)CC(Nc2ccccc2)=C/C(=N/c2ccccc2)C1` the figure was 9.89.
